# Molecular target: endogenous cellular BACE2 in the Ins1e rat cell line (Rattus norvegicus (Rat), UniProt Q6IE75)
# Test: Assay for BACE inhibition by measuring cellular TMEM27 cleavage (ELISA of shed hTMEM27 from INS-TMEM27 cells)
# Type: cell-based
# Conditions: assay a): cellular TMEM27 cleavage, INS-TMEM27 cells (superscript a)
# Outline: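 Shed human TMEM27 is quantified by ELISA in medium of TetOn INS1e cells after 46 h at 37 °C. Compound is dosed across a concentration range, followed 2 h later by doxycycline induction at 500 ng/ml. Each concentration's readout is curve-fitted to give the EC50.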
# Chain of endogenous cellular BACE2 in the Ins1e rat cell line (Q6IE75 63-514): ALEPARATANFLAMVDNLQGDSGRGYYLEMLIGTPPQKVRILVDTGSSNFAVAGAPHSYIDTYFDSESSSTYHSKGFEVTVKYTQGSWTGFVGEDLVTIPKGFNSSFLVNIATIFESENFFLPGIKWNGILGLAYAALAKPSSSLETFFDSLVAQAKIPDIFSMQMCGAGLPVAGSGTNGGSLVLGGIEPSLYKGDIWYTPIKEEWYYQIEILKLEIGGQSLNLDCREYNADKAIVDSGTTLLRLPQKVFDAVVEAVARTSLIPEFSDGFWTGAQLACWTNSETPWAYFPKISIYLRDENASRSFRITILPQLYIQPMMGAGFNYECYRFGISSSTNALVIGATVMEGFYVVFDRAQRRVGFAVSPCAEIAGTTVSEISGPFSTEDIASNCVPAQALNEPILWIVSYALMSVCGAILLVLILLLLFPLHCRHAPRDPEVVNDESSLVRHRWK
row,IC50 [nM],Compound
1,44,"CN1C(=O)C(C)(C)[C@@](C)(c2cc(NC(=O)[C@](C)(O)C(F)(F)F)ccc2F)N=C1N [Example 143, (S)—N-(3-((S)-2-amino-1,4,5,5-tetramethyl-6-oxo-1,4,5,6-tetrahydropyrimidin-4-yl)-4-fluorophenyl)-3,3,3-trifluoro-2-hydroxy-2-methylpropanamide]"
2,3,"CN1C(=O)C(C)(C)[C@@](C)(c2cc(NC3CS(=O)(=O)c4ccccc43)ccc2F)N=C1N (stereo partly drawn) [Example 144, (S)-2-Amino-6-[5-(1,1-dioxo-2,3-dihydro-1H-1-benzo[b]thiophen-3-ylamino)-2-fluoro-phenyl]-3,5,5,6-tetramethyl-5,6-dihydro-3H-pyrimidin-4-one]"
3,14,"CN1C(=O)C(C)(C)[C@@](C)(c2cc(Nc3cc(F)ccc3F)ccc2F)N=C1N [Example 145, (S)-2-Amino-6-[5-(2,5-difluoro-phenylamino)-2-fluoro-phenyl]-3,5,5,6-tetramethyl-5,6-dihydro-3H-pyrimidin-4-one]"
4,2,"CN1C(=O)C(C)(C)[C@@](C)(c2cc(Nc3ccc(C#N)cc3F)ccc2F)N=C1N [Example 152, (S)-4-(3-(2-Amino-1,4,5,5-tetramethyl-6-oxo-1,4,5,6-tetrahydropyrimidin-4-yl)-4-fluorophenylamino)-3-fluorobenzonitrile]"
5,654,"CN1C(=O)C(C)(C)[C@@](C)(c2cc(Nc3cccc4c3OCC4)ccc2F)N=C1N [Example 157, (S)-2-Amino-6-(5-(2,3-dihydrobenzofuran-7-ylamino)-2-fluorophenyl)-3,5,5,6-tetramethyl-5,6-dihydropyrimidin-4(3H)-one]"

# More lines, now with the values behind:
row,Compound,IC50 [nM]
1,"Cc1cc(C)c(Nc2ccc(F)c([C@@]3(C)N=C(N)N(C)C(=O)C3(C)C)c2)cc1C [Example 146, (S)-2-Amino-6-(2-fluoro-5-(2,4,5-trimethylphenylamino)phenyl)-3,5,5,6-tetramethyl-5,6-dihydropyrimidin-4(3H)-one]",257
2,"CN1C(=O)C(C)(C)[C@@](C)(c2cc(NC(=O)C3(O)CCC3)ccc2F)N=C1N [Example 147, (S)—N-(3-(2-amino-1,4,5,5-tetramethyl-6-oxo-1,4,5,6-tetrahydropyrimidin-4-yl)-4-fluorophenyl)-1-hydroxycyclobutanecarboxamide]",269
3,"CN1C(=O)C(C)(C)[C@@](C)(c2cc(NC(=O)C(O)(C(F)(F)F)C(F)(F)F)ccc2F)N=C1N [Example 148, (S)—N-(3-(2-amino-1,4,5,5-tetramethyl-6-oxo-1,4,5,6-tetrahydropyrimidin-4-yl)-4-fluorophenyl)-3,3,3-trifluoro-2-hydroxy-2-(trifluoromethyl)propanamide]",497
4,"Cc1cc(Nc2ccc(F)c([C@@]3(C)N=C(N)N(C)C(=O)C3(C)C)c2)ccc1C#N [Example 149, (S)-4-(3-(2-Amino-1,4,5,5-tetramethyl-6-oxo-1,4,5,6-tetrahydropyrimidin-4-yl)-4-fluorophenylamino)-2-methylbenzonitrile]",81
5,"C[C@@H]1CC(Nc2ccc(F)c([C@@]3(C)N=C(N)N(C)C(=O)C3(C)C)c2)C[C@H](C)O1 (stereo partly drawn) [Example 155, (6S)-2-Amino-6-(5-((2R,6S)-2,6-dimethyltetrahydro-2H-pyran-4-ylamino)-2-fluorophenyl)-3,5,5,6-tetramethyl-5,6-dihydropyrimidin-4(3H)-one]",123
6,"CN1C(=O)C(C)(C)[C@@](C)(c2cc(Nc3cccc4c3OC(C)(C)C4)ccc2F)N=C1N [Example 156, (S)-2-Amino-6-(5-(2,2-dimethyl-2,3-dihydrobenzofuran-7-ylamino)-2-fluorophenyl)-3,5,5,6-tetramethyl-5,6-dihydropyrimidin-4(3H)-one]",1210
7,"CN1C(=O)C(C)(C)[C@@](C)(c2cc(NC3CC(C)(C)CC3O)ccc2F)N=C1N (stereo partly drawn) [Example 158, (S)-2-Amino-6-[2-fluoro-5-(2-hydroxy-4,4-dimethyl-cyclopentylamino)-phenyl]-3,5,5,6-tetramethyl-5,6-dihydro-3H-pyrimidin-4-one]",298

# From US8815881B2 (Hoffmann-La Roche Inc., priority 2010, dated 2014)
